Legend:
Type in all cases: in vivo
[1] = test system: Leptosphaeria nodorum; assay: Leptosphaeria nodorum test (wheat)/protective; details: protective spray, application rate 250 g/ha, evaluation 10 days after inoculation
Description: Leptosphaeria nodorun Test (Wheat)/Protective Solvent: 10 parts by weight of N-methyl-pyrrolidone Emulsifier: 0.6 part by weight of alkylaryl polyglycol ether To produce a suitable preparation of active compound, 1 part by weight of active compound is mixed with the stated amounts of solvent and emulsifier, and the concentrate is diluted with water to the desired concentration. To test for protective activity, young plants are sprayed with the preparation of active compound. After the spray coating has dried on, the plants are sprayed with a spore suspension of Leptosphaeria nodorum. The plants remain for 48 hours in an incubation cabin at 20° C. and 100% relative atmospheric humidity. The plants are placed in a greenhouse at a temperature of about 15° C. and a relative atmospheric humidity of about 80%. Evaluation is effected 10 days after the inoculation.

[2] = test system: Erysiphe graminis f.sp. hordei; assay: Erysiphe test (barley)/protective; details: protective spray, application rate 250 g/ha, evaluation 7 days after inoculation
Description: Erysiphe Test (Barley)/Protective Solvent: 10 parts by weight of N-methyl-pyrrolidone Emulsifier: 0.6 part by weight of alkylaryl polyglycol ether To produce a suitable preparation of active compound, 1 part by weight of active compound is mixed with the stated amounts of solvent and emulsifier, and the concentrate is diluted with water to the desired concentration. To test for protective activity, young plants are sprayed with the preparation of active compound at given application rate. After the spray coating has dried on, the plants are dusted with spores of Erysiphe graminis f.sp. hordei. The plants are placed in a greenhouse at a temperature of about 20° C. and a relative atmospheric humidity of about 80%, in order to promote the development of powdery mildew pustules. Evaluation is carried out 7 days after the inoculation.

[3] = test system: Plasmopara viticola; assay: Plasmopara test (vine)/protective; details: protective spray, active compound concentration 100 ppm, evaluation 6 days after inoculation
Description: Plasmopara Test (Vine)/Protective Solvent: 4.7 parts by weight of acetone Emulsifier: 0.3 part by weight of alkylaryl polyglycol ether To produce a suitable preparation of active compound, 1 part by weight of active compound is mixed with the stated amounts of solvent and emulsifier, and the concentrate is diluted with water to the desired concentration. To test for protective activity, young plants are sprayed with the preparation of active compound. After the spray coating has dried on, the plants are inoculated with an aqueous spore suspension of Plasmopara viticola and then remain in a humidity chamber at 20 to 22° C. and 100% relative atmospheric humidity for 1 day. The plants are then placed in a greenhouse at 21° C. and about 90% atmospheric humidity for 5 days. The plants are then moistened and placed in a humidity chamber for 1 day. Evaluation is carried out 6 days after the inoculation.

[4] = test system: Uncinula necator; assay: Uncinula test (vine)/protective; details: protective spray, evaluation 14 days after inoculation
Description: (§1) Uncinula Test (Vine)/Protective Solvent: 4.7 parts by weight of acetone Emulsifier: 0.3 part by weight of alkylaryl polyglycol ether To produce a suitable preparation of active compound, 1 part by weight of active compound is mixed with the stated amounts of solvent and emulsifier, and the concentrate is diluted with water to the desired concentration. To test for protective activity, young plants are sprayed with the preparation of active compound. After the spray coating has dried on, the plants are dusted with conidia of the fungus Uncinula necator. The plants are then placed in a greenhouse at 23 to 24° C. and a relative atmospheric humidity of about 75%. Evaluation is effected 14 days after the inoculation.

[5] = test system: Venturia inaequalis; assay: Venturia test (apple)/protective; details: protective spray, active compound concentration 10 ppm, evaluation 12 days after inoculation
Description: Venturia Test (Apple)/Protective Solvent: 4.7 parts by weight of acetone Emulsifier: 0.3 part by weight of alkylaryl polyglycol ether To produce a suitable preparation of active compound, 1 part by weight of active compound is mixed with the stated amounts of solvent and emulsifier, and the concentrate is diluted with water to the desired concentration. To test for protective activity, young plants are sprayed with the preparation of active compound. After the spray coating has dried on, the plants are inoculated with an aqueous conidia suspension of the apple scab causative organism Venturia inaequalis and then left in an incubation cabin at 20° C. and 100% relative atmospheric humidity for 1 day. The plants are then placed in a greenhouse at 20° C. and a relative atmospheric humidity of about 70%. Evaluation is carried out 12 days after the inoculation.

[6] = test system: Sphaerotheca fuliginea; assay: Sphaerotheca test (cucumber)/protective; details: protective spray, active compound concentration 100 ppm, evaluation 10 days after inoculation
Description: as §1, with “Sphaerotheca Test (Cucumber)/Protective” for “Uncinula Test (Vine)/Protective”, “Sphaerotheca Test (Cucumber)/Protective Solvent: 4.7” for “Uncinula Test (Vine)/Protective Solvent: 4.7”, “the fungus Sphaerotheca fuliginea. The plants” for “the fungus Uncinula necator. The plants”, “C. and at a relative” for “C. and a relative”, “Evaluation is carried out 10 days after” for “Evaluation is effected 14 days after”

COC(=O)/C(=C/OCF)c1ccccc1Oc1nc(-c2ccc(Br)cc2)ns1 [Example 2, methyl 2-{2-[3-(4-bromophenyl)-1,2,4-thiadiazol-5-yloxy]-phenyl}-3-fluoromethoxy-acrylate]
Efficacy in %, relative to the untreated control [1]: 88%
Efficacy in % of the untreated control [2]: 81%
Efficacy in % of the untreated control [3]: 100%
Efficacy ([4]; active compound concentration 10 ppm): 100%
Efficacy in % of the untreated control ([4]; active compound concentration 25 ppm (table)): 100%
Efficacy in % of the untreated control [5]: 100%
Efficacy in % of the untreated control [6]: 100%

Reference: patent US6337401B1, “Fluoromethoxyacrylic acid derivatives and their use as pest control agents” (Bayer Aktiengesellschaft, priority 1995, dated 2002)
